{"source": "ChEMBL document CHEMBL1201862", "about": "“PubChem BioAssay data set” (2004)", "key": {"Vibrio harveyi [1]": {"test_system": "Vibrio harveyi", "test": "Quorum Sensing, LuxS, LuxPQ Measured in Microorganism System Using Plate Reader - 2035-01_Inhibitor_DoseNoFile_DryPowder_Activity. [Related pubchem assays (depositor defined):AID2106]", "format": "functional, organism-based"}, "Vibrio harveyi [2]": {"test_system": "Vibrio harveyi", "test": "LuxS/LuxPQ-dependent luminescence inhibition, V. harveyi – dry powder, set 2, dose response (AID 493072)", "format": "functional, organism-based"}, "Estrogen receptor beta [3]": {"target": "T1, Estrogen receptor beta (Homo sapiens, UniProt Q92731)", "T1 sequence (Q92731 whole entry)": "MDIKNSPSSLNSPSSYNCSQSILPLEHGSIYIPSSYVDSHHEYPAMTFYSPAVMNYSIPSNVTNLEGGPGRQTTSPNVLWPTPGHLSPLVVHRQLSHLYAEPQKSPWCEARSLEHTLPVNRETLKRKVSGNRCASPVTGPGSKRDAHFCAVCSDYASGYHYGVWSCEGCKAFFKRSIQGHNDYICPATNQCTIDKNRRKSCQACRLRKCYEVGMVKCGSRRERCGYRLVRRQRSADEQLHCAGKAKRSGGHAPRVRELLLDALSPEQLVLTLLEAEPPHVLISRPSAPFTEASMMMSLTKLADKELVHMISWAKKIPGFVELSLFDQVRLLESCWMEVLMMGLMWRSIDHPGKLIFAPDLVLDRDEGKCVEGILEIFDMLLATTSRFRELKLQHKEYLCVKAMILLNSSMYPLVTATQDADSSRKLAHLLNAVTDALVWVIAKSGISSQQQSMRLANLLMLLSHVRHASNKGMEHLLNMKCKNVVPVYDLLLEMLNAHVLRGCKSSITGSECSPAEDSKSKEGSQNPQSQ"}, "Bcl-2-like protein 10": {"target": "Bcl-2-like protein 10 (Homo sapiens, UniProt Q9HD36)", "sequence (Q9HD36 whole entry)": "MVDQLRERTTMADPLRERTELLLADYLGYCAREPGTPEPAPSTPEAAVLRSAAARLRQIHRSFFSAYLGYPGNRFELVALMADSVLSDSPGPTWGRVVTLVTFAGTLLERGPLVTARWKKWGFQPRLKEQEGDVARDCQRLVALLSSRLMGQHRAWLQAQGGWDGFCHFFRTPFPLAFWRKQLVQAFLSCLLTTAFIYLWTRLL", "test": "Bcl-B/TR3 peptide binding disruption – biochemical, fluorescence polarization, FITC-TR3 peptide, selectivity assay for Bfl-1 inhibitor project, primary screen (AID 748);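 further: fluorescence polarization from a fluorescein-labelled TR3 peptide binding purified Bcl-B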"}, "Estrogen receptor beta [4]": {"target": "T1, Estrogen receptor beta", "test": "blockers of SRC-3 recruitment to ERβ – biochemical, ELISA, streptavidin-HRP readout, orthogonal assay, confirmation (AID 1060)"}, "[5]": {"target": "Glyceraldehyde-3-phosphate dehydrogenase (Homo sapiens, UniProt P04406)", "sequence (P04406 whole entry)": "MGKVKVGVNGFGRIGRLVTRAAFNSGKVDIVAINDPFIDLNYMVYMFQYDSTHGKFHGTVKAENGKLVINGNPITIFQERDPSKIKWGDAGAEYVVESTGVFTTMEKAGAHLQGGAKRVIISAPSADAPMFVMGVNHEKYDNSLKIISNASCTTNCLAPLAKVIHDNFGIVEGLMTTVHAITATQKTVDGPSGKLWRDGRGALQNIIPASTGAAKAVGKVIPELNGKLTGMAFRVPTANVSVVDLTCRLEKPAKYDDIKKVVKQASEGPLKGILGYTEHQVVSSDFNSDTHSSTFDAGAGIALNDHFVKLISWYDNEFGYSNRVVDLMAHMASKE"}, "[6]": {"target": "T2, Dual specificity protein phosphatase 6 (Rattus norvegicus, UniProt Q64346)", "T2 sequence (Q64346 whole entry)": "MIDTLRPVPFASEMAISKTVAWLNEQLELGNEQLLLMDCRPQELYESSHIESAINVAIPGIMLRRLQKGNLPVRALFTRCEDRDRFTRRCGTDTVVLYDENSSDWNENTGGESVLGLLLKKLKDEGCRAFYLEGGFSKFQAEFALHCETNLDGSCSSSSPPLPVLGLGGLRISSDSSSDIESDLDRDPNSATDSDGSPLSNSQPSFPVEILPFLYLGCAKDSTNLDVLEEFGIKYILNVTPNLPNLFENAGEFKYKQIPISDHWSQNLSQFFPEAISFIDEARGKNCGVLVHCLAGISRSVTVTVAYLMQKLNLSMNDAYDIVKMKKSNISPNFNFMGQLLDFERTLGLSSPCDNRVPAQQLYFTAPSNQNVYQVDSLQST"}, "[7]": {"target": "Heat shock 70 kDa protein 1A (Homo sapiens, UniProt P0DMV8)", "sequence (P0DMV8 whole entry)": "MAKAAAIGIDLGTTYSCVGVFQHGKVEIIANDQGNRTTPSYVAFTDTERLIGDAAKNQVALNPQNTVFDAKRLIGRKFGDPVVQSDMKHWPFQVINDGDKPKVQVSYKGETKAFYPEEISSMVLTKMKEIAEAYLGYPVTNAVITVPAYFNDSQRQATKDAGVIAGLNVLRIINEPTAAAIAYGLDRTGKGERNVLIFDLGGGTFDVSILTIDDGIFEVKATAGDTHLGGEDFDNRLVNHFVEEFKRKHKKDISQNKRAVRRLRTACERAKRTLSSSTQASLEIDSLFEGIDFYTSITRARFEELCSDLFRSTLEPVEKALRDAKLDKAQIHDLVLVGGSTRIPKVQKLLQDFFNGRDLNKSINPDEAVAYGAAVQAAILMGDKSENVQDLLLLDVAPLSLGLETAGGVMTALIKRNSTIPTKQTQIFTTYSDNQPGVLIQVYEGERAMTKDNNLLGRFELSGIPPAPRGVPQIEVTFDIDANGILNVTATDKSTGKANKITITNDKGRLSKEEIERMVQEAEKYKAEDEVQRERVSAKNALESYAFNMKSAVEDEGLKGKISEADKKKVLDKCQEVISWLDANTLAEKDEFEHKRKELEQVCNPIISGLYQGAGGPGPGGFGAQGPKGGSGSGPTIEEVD", "test": "inhibition of Hsp70 binding activity – biochemical, fluorescence polarization, SAR follow-up (AID 1072)"}, "[8]": {"target": "T3, Tyrosine-protein phosphatase non-receptor type 7 (Homo sapiens, UniProt P35236)", "T3 sequence (P35236 whole entry)": "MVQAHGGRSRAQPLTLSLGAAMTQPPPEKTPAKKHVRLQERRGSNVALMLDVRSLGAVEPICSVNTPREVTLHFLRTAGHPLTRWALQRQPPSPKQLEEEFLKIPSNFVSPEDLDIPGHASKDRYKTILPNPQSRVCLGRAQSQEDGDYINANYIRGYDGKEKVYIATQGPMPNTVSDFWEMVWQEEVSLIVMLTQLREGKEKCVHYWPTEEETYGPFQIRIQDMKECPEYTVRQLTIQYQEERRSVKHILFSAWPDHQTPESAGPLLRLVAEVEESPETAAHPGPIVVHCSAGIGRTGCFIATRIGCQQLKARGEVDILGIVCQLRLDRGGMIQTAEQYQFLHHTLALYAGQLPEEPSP", "format": "functional"}, "[9]": {"target": "T2, Dual specificity protein phosphatase 6", "format": "functional"}, "[10]": {"target": "Heat shock cognate 71 kDa protein (Homo sapiens, UniProt P11142)", "sequence (P11142 whole entry)": "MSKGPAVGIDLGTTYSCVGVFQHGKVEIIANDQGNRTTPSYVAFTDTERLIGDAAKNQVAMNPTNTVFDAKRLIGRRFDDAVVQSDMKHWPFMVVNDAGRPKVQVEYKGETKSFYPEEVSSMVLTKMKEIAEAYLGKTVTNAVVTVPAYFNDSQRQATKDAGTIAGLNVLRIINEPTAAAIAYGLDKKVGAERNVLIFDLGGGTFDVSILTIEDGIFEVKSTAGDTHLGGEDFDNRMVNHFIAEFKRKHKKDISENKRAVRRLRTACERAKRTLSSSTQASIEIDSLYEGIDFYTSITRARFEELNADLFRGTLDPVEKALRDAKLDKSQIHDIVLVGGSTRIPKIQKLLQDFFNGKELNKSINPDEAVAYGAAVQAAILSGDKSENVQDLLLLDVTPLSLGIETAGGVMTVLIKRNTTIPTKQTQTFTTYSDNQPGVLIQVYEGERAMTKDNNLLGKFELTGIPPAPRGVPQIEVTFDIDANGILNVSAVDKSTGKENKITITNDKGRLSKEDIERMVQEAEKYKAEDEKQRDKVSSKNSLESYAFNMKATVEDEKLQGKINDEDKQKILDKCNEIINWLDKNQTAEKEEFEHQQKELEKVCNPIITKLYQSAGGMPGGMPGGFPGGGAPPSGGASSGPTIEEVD", "test": "In Vitro Hsc70 Dose Response Fluorescence Polarization Assay. [Related pubchem assays: 1072 ]"}, "[11]": {"target": "T4, Sentrin-specific protease 1 (Homo sapiens, UniProt Q9P0U3)", "T4 sequence (Q9P0U3 whole entry)": "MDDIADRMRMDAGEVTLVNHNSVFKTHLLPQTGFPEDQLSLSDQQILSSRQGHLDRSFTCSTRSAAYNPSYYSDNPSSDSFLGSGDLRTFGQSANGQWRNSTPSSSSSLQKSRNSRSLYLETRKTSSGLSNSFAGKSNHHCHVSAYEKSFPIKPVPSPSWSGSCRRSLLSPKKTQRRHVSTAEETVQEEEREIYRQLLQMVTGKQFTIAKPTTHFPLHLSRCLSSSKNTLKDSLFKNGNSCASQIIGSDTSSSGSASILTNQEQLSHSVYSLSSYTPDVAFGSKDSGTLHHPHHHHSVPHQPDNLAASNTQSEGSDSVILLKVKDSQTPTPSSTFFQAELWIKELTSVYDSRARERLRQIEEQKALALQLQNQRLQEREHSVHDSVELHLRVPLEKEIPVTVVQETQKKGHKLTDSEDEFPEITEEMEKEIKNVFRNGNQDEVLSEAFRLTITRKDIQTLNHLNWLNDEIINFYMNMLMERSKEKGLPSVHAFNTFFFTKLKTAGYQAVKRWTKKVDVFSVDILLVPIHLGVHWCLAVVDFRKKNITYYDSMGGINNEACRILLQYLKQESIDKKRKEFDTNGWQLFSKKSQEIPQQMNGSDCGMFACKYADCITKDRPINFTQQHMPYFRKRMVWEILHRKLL", "test": "Dose response confirmation of small molecule inhibitors of the catalytic domain of the SUMO protease, SENP1 in a FRET assay.", "format": "functional", "settings": "read-out: IC50_Mean"}, "[12]": {"test": "Counterscreen for IDE inhibitors: Luminescence-based cell-based high throughput dose response assay to identify compounds that are cytotoxic to HEK cells. [Related pubchem assays: 434962 (Primary screen (IDE inhibitors in singlicate)), 449730 (Counterscreen (Cytotoxicity in triplicate)), 435028 (Confirmation (IDE inhibitors in triplicate)) …", "format": "functional", "settings": "HEK293"}, "[13]": {"target": "T4, Sentrin-specific protease 1", "test": "SENP1 catalytic domain blockers, concentration series – biochemical, kinetic FRET, dose response (AID 651697)", "format": "functional", "settings": "read-out: IC50_Mean"}, "Insulin-degrading enzyme": {"target": "T5, Insulin-degrading enzyme (Homo sapiens, UniProt P14735)", "T5 sequence (P14735 whole entry)": "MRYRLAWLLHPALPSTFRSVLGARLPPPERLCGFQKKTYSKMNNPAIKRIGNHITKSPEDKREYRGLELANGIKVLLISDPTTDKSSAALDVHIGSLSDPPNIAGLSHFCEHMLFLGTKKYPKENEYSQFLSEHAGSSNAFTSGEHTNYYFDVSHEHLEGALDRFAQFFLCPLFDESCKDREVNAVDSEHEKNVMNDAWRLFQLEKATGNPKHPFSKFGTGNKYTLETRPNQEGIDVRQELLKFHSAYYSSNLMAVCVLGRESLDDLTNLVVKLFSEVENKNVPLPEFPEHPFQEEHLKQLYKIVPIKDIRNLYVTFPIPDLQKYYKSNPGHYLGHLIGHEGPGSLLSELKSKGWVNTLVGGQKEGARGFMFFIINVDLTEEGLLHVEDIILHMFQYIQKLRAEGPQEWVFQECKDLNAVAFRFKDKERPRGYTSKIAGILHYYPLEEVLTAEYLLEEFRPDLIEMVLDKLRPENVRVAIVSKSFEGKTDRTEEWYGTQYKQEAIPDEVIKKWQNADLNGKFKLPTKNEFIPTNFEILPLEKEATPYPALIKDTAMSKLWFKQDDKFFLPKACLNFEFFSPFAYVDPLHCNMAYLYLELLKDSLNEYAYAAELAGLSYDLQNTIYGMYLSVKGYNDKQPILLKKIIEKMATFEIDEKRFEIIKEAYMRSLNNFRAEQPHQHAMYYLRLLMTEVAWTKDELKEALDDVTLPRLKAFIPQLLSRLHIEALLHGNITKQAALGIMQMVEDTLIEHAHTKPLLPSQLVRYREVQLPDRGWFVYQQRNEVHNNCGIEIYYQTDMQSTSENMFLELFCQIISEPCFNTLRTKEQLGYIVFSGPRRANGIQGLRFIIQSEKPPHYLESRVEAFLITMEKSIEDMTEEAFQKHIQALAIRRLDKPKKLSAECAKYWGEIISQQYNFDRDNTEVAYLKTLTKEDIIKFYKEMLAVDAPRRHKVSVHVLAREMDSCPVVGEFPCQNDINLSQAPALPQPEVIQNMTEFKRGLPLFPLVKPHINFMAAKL", "test": "Dose Response: Fluorescence polarization-based cell-based high throughput dose response assay for inhibitors of insulin-degrading enzyme (IDE). [Related pubchem assays: 434962 (Primary screen (IDE inhibitors in singlicate)), 449730 (Counterscreen (Cytotoxicity in triplicate)), 435028 (Confirmation (IDE inhibitors in triplicate)), 434984 (Summary …", "format": "functional"}, "Protein Rev": {"target": "Protein Rev (Human immunodeficiency virus type 1 group M subtype B (isolate WMJ22)(HIV-1), UniProt P05866)", "sequence (P05866 whole entry)": "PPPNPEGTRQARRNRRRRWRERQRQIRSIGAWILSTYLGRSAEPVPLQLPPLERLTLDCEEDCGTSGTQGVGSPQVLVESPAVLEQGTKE", "test": "inhibitors of Rev protein–RRE RNA complex – biochemical, protein-RNA interaction, dose response (AID 842)", "set-up": "species or system Human immunodeficiency virus 1"}}, "note": "The source made the active and inactive calls.", "data": [{"smiles": "Cn1cnc(S(=O)(=O)Nc2ccc(OC(F)(F)F)cc2)c1", "values": [{"measurement": "AC50", "setting": "Vibrio harveyi [1]", "value": "3.13 µM (active)"}, {"measurement": "AC50", "setting": "Vibrio harveyi [2]", "value": "4.67 µM (active)"}, {"measurement": "AC50", "setting": "Vibrio harveyi [2]; Vibrio harveyi", "value": "5.06 µM (active)"}]}, {"smiles": "Cc1ccc(S(=O)(=O)Cc2ccc(C(=O)N3CCc4ccccc4C3)o2)cc1", "values": [{"measurement": "IC50", "setting": "Estrogen receptor beta [3]", "value": "4.88 µM (active)"}, {"measurement": "IC50", "setting": "Bcl-2-like protein 10", "value": "20.5 µM (active)"}, {"measurement": "IC50", "setting": "Estrogen receptor beta [4]", "value": "< 0.023 µM (not active)"}]}, {"smiles": "CCOC(=O)c1ccccc1OC(=O)c1ccc2c(c1)C1C=CCC1C(C(=O)O)N2", "note": "(configuration not stated)", "values": [{"measurement": "IC50", "setting": "[5]", "value": "> 100 µM (not active)"}, {"measurement": "IC50", "setting": "[6]", "value": "14.1 µM (active)"}, {"measurement": "IC50", "setting": "[7]", "value": "35.1 µM (active)"}, {"measurement": "IC50", "setting": "[8]", "value": "3.3 µM (active)"}, {"measurement": "IC50", "setting": "[9]", "value": "6.01 µM (active)"}, {"measurement": "IC50", "setting": "[10]", "value": "112 µM (active)"}]}, {"smiles": "CCN(CC)C(=O)Cn1cc(C(=O)C(=O)N2CC=C(c3ccccc3)CC2)c2ccccc21", "values": [{"measurement": "IC50", "setting": "[11]", "value": "7.95 µM (active)"}, {"measurement": "IC50", "setting": "[12]", "value": "24.4 µM (not active)"}, {"measurement": "IC50", "setting": "[13]", "value": "20.4 µM (inactive)"}, {"measurement": "IC50", "setting": "Insulin-degrading enzyme", "value": "35.1 µM (not active)"}]}, {"smiles": "COc1ccc(C2N=C(N)N=C(N)N2c2ccc(C)cc2)cc1", "note": "(configuration not stated)", "values": [{"measurement": "IC50", "setting": "Protein Rev", "value": "> 79.4 µM (not active)"}]}]}
